Test results: patent US6403830B2, “Amidino compound and salts thereof useful as nitric oxide synthase inhibitors” (Pharmacia Corporation, priority 2000, dated 2002)
Counter-ions that a name gives are not always drawn.

Assays:
[1] = molecular target: T1, human endothelial constitutive NOS (hecNOS) (Homo sapiens, UniProt P29474); assay: Citrulline assay for nitric oxide synthase, hecNOS; assay type: biochemical; conditions: recombinant enzyme, 30 μM L-arginine, calmodulin; averages across all experiments and all lots
T1 construct: made in house; host or cells: Sf9 insect cells (baculovirus vector)
T1 sequence (P29474 2-1203): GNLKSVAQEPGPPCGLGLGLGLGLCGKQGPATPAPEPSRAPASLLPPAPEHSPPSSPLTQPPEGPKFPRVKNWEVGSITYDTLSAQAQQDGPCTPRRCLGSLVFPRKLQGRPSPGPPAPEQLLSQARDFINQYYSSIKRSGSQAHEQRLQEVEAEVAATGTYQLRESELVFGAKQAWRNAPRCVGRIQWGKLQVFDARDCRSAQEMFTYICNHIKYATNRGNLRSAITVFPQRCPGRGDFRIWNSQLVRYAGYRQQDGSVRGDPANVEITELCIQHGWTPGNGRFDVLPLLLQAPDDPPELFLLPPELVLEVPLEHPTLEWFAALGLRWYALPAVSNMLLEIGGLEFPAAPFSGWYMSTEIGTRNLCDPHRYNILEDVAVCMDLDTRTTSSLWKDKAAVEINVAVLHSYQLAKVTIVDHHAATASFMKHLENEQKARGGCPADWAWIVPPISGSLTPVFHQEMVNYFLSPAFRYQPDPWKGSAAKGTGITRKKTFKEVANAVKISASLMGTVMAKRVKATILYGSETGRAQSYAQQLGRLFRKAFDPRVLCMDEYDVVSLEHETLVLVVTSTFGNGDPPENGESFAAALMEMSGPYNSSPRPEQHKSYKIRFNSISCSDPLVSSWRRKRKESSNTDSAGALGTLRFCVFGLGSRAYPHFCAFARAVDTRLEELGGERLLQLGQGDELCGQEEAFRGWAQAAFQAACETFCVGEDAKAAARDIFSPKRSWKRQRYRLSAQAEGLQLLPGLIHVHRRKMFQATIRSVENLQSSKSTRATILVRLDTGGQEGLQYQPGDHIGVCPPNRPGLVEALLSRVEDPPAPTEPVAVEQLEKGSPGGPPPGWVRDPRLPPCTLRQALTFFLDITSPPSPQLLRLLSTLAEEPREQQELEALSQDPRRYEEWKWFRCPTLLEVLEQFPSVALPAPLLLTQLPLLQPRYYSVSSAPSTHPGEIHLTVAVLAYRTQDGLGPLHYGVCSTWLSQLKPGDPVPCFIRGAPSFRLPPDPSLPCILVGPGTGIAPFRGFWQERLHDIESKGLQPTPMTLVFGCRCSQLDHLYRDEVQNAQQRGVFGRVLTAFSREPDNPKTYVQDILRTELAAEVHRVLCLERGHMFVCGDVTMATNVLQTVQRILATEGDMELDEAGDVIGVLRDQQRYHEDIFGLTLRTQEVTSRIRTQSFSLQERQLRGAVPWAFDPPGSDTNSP
From the text: (§1) Nitric oxide synthase (NOS) activity can be measured by monitoring the conversion of L-[2,3-^3H]-arginine to L-[2,3-^3H]-citrulline (Bredt and Snyder, Proc. Natl. Acad. Sci. U.S.A., 87, 682-685, 1990 and Moore et al, J. Med. Chem. 39, 669-672, 1996). Human inducible NOS (hiNOS), human endothelial constitutive NOS (hecNOS) and human neuronal constitutive NOS (hncNOS) are each cloned from RNA extracted from human tissue. The cDNA for human inducible NOS (hiNOS) is isolated from a λcDNA library made from RNA extracted from a colon sample from a patient with ulcerative colitis. The cDNA for human endothelial constitutive NOS (hecNOS) is isolated from a λcDNA library made from RNA extracted from human umbilical vein endothelial cells (HUVEC) and the cDNA for human neuronal constitutive NOS (hncNOS) is isolated from a λcDNA library made from RNA extracted from human cerebellum obtained from a cadaver. The recombinant enzymes are expressed in Sf9 insect cells using a baculovirus vector (Rodi et al, in The Biology of Nitric Oxide, Pt. 4: Enzymology, Biochemistry and Immunology: Moncada, S., Feelisch, M., Busse, R., Higgs, E., Eds.; Portland Press Ltd.: London, 1995; pp 447-450). Enzyme activity is isolated from soluble cell extracts and partially purified by DEAE-Sepharose chromatography. To measure NOS activity, 10 μL of enzyme is added to 40 μL of 50 mM Tris (pH 7.6) in the presence or absence of test compounds and the reaction initiated by the addition of 50 μL of a reaction mixture containing 50 mM Tris (pH 7.6), 2.0 mg/mL bovine serum albumin, 2.0 mM DTT, 4.0 mM CaCl2, 20 μM FAD, 100 μM tetrahydrobiopterin, 0.4 mM NADPH and 60 μM L-arginine containing 0.9 μCi of L-[2,3-^3H]-arginine. The final concentration of L-arginine in the assay is 30 μM. For hecNOS or hncNOS, calmodulin is included at a final concentration of 40-100 nM. Following incubation at 37° C. for 15 minutes, the reaction is terminated by addition of 400 μL of a suspension (1 part resin, 3 parts buffer) of Dowex 5OW X-8 cation exchange resin in a stop buffer containing 10 mM EGTA, 100 mM HEPES, pH 5.5 and 1 mM L-citrulline. After mixing the resin is allowed to settle and L-[2,3-^3H]-Citrulline formation is determined by counting aliquots of the supernatant with a liquid scintillation counter. Results are reported in Table 1 as the IC50 values of compounds for hiNOS, hecNOS and hncNOS.

[2] = molecular target: T2, human neuronal constitutive NOS (hncNOS) (Homo sapiens, UniProt P29475); assay: Citrulline assay for nitric oxide synthase, hncNOS; assay type: biochemical; conditions: recombinant enzyme, 30 μM L-arginine, calmodulin; averages across all experiments and all lots
T2 construct: made in house; host or cells: Sf9 insect cells (baculovirus vector)
T2 sequence (P29475 whole entry): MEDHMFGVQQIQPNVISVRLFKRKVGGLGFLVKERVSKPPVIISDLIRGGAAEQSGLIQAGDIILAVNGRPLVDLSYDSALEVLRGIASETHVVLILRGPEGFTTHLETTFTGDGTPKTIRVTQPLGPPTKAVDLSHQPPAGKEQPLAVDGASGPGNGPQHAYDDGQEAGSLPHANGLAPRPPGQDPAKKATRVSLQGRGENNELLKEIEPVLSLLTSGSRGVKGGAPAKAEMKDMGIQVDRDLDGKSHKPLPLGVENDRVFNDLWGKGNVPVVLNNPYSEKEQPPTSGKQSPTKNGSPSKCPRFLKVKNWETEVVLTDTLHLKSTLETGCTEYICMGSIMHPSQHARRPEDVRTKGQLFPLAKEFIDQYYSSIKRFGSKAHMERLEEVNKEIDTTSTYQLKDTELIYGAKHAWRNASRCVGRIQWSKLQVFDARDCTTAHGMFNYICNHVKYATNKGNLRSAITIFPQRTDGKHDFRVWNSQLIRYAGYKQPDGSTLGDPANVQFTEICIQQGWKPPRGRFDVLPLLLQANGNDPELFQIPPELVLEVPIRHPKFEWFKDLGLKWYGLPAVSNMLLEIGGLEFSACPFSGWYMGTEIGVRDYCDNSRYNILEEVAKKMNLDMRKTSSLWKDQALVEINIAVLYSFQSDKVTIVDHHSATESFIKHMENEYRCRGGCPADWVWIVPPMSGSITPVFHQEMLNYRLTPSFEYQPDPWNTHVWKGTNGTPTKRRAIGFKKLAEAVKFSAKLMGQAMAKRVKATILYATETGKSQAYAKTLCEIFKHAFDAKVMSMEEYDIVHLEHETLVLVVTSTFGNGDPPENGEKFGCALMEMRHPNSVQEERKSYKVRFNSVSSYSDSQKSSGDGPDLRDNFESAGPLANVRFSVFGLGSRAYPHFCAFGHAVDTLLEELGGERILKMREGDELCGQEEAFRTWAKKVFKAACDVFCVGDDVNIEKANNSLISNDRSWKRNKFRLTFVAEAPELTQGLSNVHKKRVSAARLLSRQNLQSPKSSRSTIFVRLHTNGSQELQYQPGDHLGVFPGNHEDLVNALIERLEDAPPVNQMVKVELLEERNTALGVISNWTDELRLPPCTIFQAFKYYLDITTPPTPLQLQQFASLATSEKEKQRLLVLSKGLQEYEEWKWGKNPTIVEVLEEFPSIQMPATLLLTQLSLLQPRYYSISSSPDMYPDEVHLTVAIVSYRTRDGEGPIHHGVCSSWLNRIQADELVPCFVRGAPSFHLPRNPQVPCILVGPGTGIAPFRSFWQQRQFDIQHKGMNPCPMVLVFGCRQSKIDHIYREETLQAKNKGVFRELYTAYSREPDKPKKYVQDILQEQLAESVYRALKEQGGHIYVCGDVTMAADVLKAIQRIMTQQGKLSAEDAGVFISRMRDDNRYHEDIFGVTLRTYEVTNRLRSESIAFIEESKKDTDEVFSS
From the text: as §1

[3] = molecular target: T3, Human inducible NOS (hiNOS) (Homo sapiens, UniProt P35228); assay: Citrulline assay for nitric oxide synthase, hiNOS; assay type: biochemical; conditions: recombinant enzyme, 30 μM L-arginine; averages across all experiments and all lots
T3 construct: made in house; host or cells: Sf9 insect cells (baculovirus vector)
T3 sequence (P35228 whole entry): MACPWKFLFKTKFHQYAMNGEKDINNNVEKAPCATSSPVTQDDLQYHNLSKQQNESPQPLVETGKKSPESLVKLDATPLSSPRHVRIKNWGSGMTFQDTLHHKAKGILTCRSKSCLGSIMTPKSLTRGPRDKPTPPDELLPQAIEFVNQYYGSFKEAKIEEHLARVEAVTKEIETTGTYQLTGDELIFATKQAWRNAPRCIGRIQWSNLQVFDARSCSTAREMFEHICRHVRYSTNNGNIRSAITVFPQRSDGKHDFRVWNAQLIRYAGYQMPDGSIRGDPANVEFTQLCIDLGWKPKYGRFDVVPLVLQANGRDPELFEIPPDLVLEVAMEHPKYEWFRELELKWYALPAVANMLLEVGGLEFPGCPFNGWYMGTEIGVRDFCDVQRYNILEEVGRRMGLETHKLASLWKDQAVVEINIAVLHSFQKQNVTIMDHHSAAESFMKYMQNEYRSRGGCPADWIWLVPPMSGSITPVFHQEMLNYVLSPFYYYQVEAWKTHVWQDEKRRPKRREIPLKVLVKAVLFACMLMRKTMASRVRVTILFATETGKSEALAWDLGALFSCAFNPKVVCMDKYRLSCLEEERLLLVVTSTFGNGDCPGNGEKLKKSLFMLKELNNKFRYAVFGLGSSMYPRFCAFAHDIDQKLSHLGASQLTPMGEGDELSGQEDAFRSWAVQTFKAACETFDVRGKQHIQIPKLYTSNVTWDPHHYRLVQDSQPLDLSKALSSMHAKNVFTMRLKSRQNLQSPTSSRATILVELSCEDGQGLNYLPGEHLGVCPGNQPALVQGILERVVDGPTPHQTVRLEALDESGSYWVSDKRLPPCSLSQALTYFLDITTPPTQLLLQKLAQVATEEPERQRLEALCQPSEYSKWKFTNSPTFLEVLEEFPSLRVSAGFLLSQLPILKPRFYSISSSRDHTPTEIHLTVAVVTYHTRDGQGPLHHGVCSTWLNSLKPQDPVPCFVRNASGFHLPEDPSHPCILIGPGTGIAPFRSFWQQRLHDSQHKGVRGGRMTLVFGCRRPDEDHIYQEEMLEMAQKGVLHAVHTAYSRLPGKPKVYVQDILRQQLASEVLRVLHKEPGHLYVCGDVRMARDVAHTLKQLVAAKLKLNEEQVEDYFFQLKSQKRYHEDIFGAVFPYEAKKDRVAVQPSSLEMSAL
From the text: as §1

[4] = test system: nitrite production in human cartilage explants induced with recombinant human IL-1β; assay: Human Cartilage Explant Assay; assay type: cell-based; conditions: inhibition of nitrite production, IL-1β-stimulated explants, averages across all experiments and all lots
Description: Bone pieces are rinsed twice with Dulbecco's Phosphate Buffered Saline (GibcoBRL) and once with Dulbecco's Modified Eagles Medium (GibcoBRL) and placed into a petri dish with phenol red free Minimum Essential Medium (MEM) (GibcoBRL). Cartilage was cut into small explants of approximately 15-45 mg in weight and one or two explants per well are placed into either 96 or 48 well culture plates with 200-500 μL of culture media per well. The culture media was either a custom modification of Minimum Essential Medium(Eagle) with Earle's salts (GibcoBRL) prepared without L-Arginine, without L-Glutamine and without phenol red or a custom modification of serumless Neuman and Tytell (GibcoBRL) medium prepared without L-arginine, without insulin, without ascorbic acid, without L-glutamine and without phenol red. Both are supplemented before use with 100 μM L-Arginine (Sigma), 2 mM L-glutamine, 1×HL-1 supplement (BioWhittaker), 50 mg/ml ascorbic acid (Sigma) and 150 pg/ml recombinant human IL-1β (RD Systems) to induce nitric oxide synthase. Compounds are then added in 10 μL aliquots and the explants incubated at 37° C. with 5% CO2 for 18-24 hours. […] This supernatant is analyzed for nitrite with a fluorometric assay (Misko et al, Anal. Biochem., 214, 11-16, 1993). […]

For `CC(=N)NCC[S+]([O-])C[C@](C)(N)C(=O)O` (mixture of isomers) [Example 18, (2R)-2-Amino-3[[2-[(1-iminoethyl)amino]ethyl]sulfmyl]-2-methylpropanoic acid, dihydrochloride], the IC50 [1] was > 100 µM, the IC50 [2] was 181 µM and the IC50 [3] was 12 µM.
Work on `CC(=N)NCCSC[C@](C)(N)C(=O)O` [Example 1, S-[2-[(1-Iminoethyl)amino]ethyl]-2-methyl-L-cysteine, dihydrochloride] yielded an IC50 [1] of 77 µM, an IC50 [2] of 15 µM and an IC50 [3] of 3.1 µM. It also gave an IC50 [4] of 700 nM.
`COC[C@](N)(CSCCNC(C)=N)C(=O)O` [Example 2, 2-[[[2-[(1-Iminoethyl)amino]ethyl]thio]methyl]-O-methyl-D-serine, dihydrochloride] showed an IC50 [1] of 302 µM, an IC50 [2] of 58 µM and an IC50 [3] of 4.4 µM.
`CC(=N)NC[C@@H](C)SC[C@](C)(N)C(=O)O` [Example 3, S-[(1R)-2-[(1-Iminoethyl)amino]-1-methylethyl]-2-methyl-L-cysteine, dihydrochloride] showed an IC50 [1] of 266 µM, an IC50 [2] of 86 µM and an IC50 [3] of 74 µM.
For `CC(=N)NC[C@H](C)SC[C@](C)(N)C(=O)O` [Example 4, S-[(1S)-2-[(1-Iminoethyl)aminol-1-methylethyl]-2-methyl-L-cysteine, dihydrochloride], the IC50 [1] was 1100 µM, the IC50 [2] was 539 µM and the IC50 [3] was 197 µM.
In the case of `CC[C@](N)(CSCCNC(C)=N)C(=O)O` [Example 7, S-[2-[(1-Iminoethyl)amino]ethyl]-2-ethyl-L-cysteine, dihydrochloride], the IC50 [1] is reported as 78 µM, the IC50 [2] is reported as 17 µM and the IC50 [3] is reported as 3.4 µM.
`CC(=N)NCCSC[C@](N)(C(=O)O)C(C)C` [Example 11, 2-[[[[2-(1-Iminoethyl)amino]ethyl]thio]methyl]-D-valine, dihydrochloride] showed an IC50 [1] of 26 µM, an IC50 [2] of 6 µM and an IC50 [3] of 0.9 µM.
With `CC(=N)NCCSCC(C)(N)C(=O)O` (stereo not drawn) [Example 16, S-[2-(1-Iminoethylamino)ethyl]-2-methyl-(D/L)-cysteine, bistrifluoroacetate] the IC50 [1] was > 100 µM, the IC50 [2] was 36 µM and the IC50 [3] was 7.2 µM. For the same molecule, the IC50 [4] was 700 nM.
`CC(=N)NCCS(=O)(=O)C[C@](C)(N)C(=O)O` [Example 19, (2R)-2-Amino-3[[2-[(1-iminoethyl)amino]ethyl]sulfonyl]-2-methylpropanoic acid dihydrochloride] showed an IC50 [1] of 1080 µM, an IC50 [2] of 220 µM and an IC50 [3] of 12 µM.
